Reference: patent US10370371B2, “Substituted pyrimidine Bmi-1 inhibitors” (PTC Therapeutics, Inc., priority 2013, dated 2019)

Test system: Bmi-1 protein
Assay: Sandwich ELISA Assay (Bmi-1 protein level in HT-1080 cells)
Assay type: cell-based
In short: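 HT-1080 cells were treated with compounds (0.5% DMSO final) for 40-48 h at 37 °C. Lysates were assayed by sandwich ELISA: mouse anti-Bmi-1 capture, rabbit anti-Bmi-1 and HRP anti-rabbit detection, TMB read at OD450 (OD570 reference). Levels were quantified against a recombinant GST-Bmi-1 standard curve (125-8000 pg/mL).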

Compound | EC50 [nM]
Nc1cc(-c2c(C3CC3)nn3ccc(F)cc23)nc(Nc2ccc(C(F)(F)F)cc2)n1 [Cpd 107, 6-(2-cyclopropyl-5-fluoropyrazolo[1,5-a]pyridin-3-yl)-N^2-[4-(trifluoromethyl)phenyl]pyrimidine-2,4-diamine] | 100 to 3000
Cc1nc2c(cc(F)c[n+]2[O-])n1-c1cc(N)nc(Nc2ccc(C(F)(F)F)cc2)n1 [Cpd 108, 6-(6-fluoro-2-methyl-4-oxido-1H-imidazo[4,5-b]pyridin-1-yl)-N^2-[4-(trifluoromethyl)phenyl]pyrimidine-2,4-diamine] | 100 to 3000
Cc1nn2ccc(F)cc2c1-c1cc(N)nc(Nc2ccc(C(F)(F)F)cc2)n1 [Cpd 109, 6-(5-fluoro-2-methylpyrazolo[1,5-a]pyridin-3-yl)-N^2-[4-(trifluoromethyl)phenyl]pyrimidine-2,4-diamine] | 10 to 100
Cc1nc2ccccc2n1-c1cc(N)[n+]([O-])c(Nc2ccc(C(F)(F)F)cc2)n1 [Cpd 110, 6-(2-methyl-1H-benzimidazol-1-yl)-N^2-[4-(trifluoromethyl)phenyl]pyrimidine-2,4-diamine 3-oxide] | 100 to 3000
Cc1nc2ccc(F)cc2n1-c1cc(N)[n+]([O-])c(Nc2ccc(C(F)(F)F)cc2)n1 [Cpd 112, 6-(6-fluoro-2-methyl-1H-benzimidazol-1-yl)-N^2-[4-(trifluoromethyl)phenyl]pyrimidine-2,4-diamine 3-oxide] | 100 to 3000
COc1ccn2nc(C)c(-c3cc(Cl)nc(Nc4ccc(C(F)(F)F)cc4)n3)c2c1 [Cpd 113, 4-chloro-6-(5-methoxy-2-methylpyrazolo[1,5-a]pyridin-3-yl)-N-[4-(trifluoromethyl)phenyl]pyrimidin-2-amine] | 10 to 100
COc1ccn2nc(C)c(-c3cc(N)nc(Nc4ccc(C(F)(F)F)cc4)n3)c2c1 [Cpd 114, 6-(5-methoxy-2-methylpyrazolo[1,5-a]pyridin-3-yl)-N^2-[4-(trifluoromethyl)phenyl]pyrimidine-2,4-diamine] | 10 to 100
Cc1nc2cc(F)c(F)cc2n1-c1cc(N)[n+]([O-])c(Nc2ccc(OC(F)F)cc2)n1 [Cpd 115, N^2-[4-(difluoromethoxy)phenyl]-6-(5,6-difluoro-2-methyl-1H-benzimidazol-1-yl)pyrimidine-2,4-diamine 3-oxide] | 100 to 3000
Nc1cc(-n2c(C3CC3)nc3ccccc32)nc(Nc2ccc(C(F)(F)F)cc2)[n+]1[O-] [Cpd 116, 6-(2-cyclopropyl-1H-benzimidazol-1-yl)-N^2-[4-(trifluoromethyl)phenyl]pyrimidine-2,4-diamine 3-oxide] | 100 to 3000
CCc1nc2ccccc2n1-c1cc(N)[n+]([O-])c(Nc2ccc(C(F)(F)F)cc2)n1 [Cpd 118, 6-(2-ethyl-1H-benzimidazol-1-yl)-N^2-[4-(trifluoromethyl)phenyl]pyrimidine-2,4-diamine 3-oxide] | 100 to 3000
CCc1nc2ccc(F)cc2n1-c1cc(N)[n+]([O-])c(Nc2ccc(C(F)(F)F)cc2)n1 [Cpd 119, 6-(2-ethyl-6-fluoro-1H-benzimidazol-1-yl)-N^2-[4-(trifluoromethyl)phenyl]pyrimidine-2,4-diamine 3-oxide] | 100 to 3000
Cc1nn2ccc(N)cc2c1-c1cc(N)nc(Nc2ccc(C(F)(F)F)cc2)n1 [Cpd 120, 6-(5-amino-2-methylpyrazolo[1,5-a]pyridin-3-yl)-N^2-[4-(trifluoromethyl)phenyl]pyrimidine-2,4-diamine] | 10 to 100
Cc1nn2ccc(Cl)cc2c1-c1cc(N)nc(Nc2ccc(OC(F)F)cc2)n1 [Cpd 121, 6-(5-chloro-2-methylpyrazolo[1,5-a]pyridin-3-yl)-N^2-[4-(difluoromethoxy)phenyl]pyrimidine-2,4-diamine] | 10 to 100
Cc1nn2ccc(Cl)cc2c1-c1cc(N)nc(Nc2ccc(C(F)(F)F)cc2)n1 [Cpd 122, 6-(5-chloro-2-methylpyrazolo[1,5-a]pyridin-3-yl)-N^2-[4-(trifluoromethyl)phenyl]pyrimidine-2,4-diamine] | 10 to 100
CSc1nc2ccccc2n1-c1cc(N)nc(Nc2ccc(C(F)(F)F)cc2)n1 [Cpd 123, 6-[2-(methylsulfanyl)-1H-benzimidazol-1-yl]-N^2-[4-(trifluoromethyl)phenyl]pyrimidine-2,4-diamine] | 10 to 100
CCc1nn2ccc(Cl)cc2c1-c1cc(N)nc(Nc2ccc(C(F)(F)F)cc2)n1 [Cpd 124, 6-(5-chloro-2-ethylpyrazolo[1,5-a]pyridin-3-yl)-N^2-[4-(trifluoromethyl)phenyl]pyrimidine-2,4-diamine] | 10 to 100
CCc1nn2ccc(Cl)cc2c1-c1cc(N)nc(Nc2ccc(OC(F)F)cc2)n1 [Cpd 125, 6-(5-chloro-2-ethylpyrazolo[1,5-a]pyridin-3-yl)-N^2-[4-(difluoromethoxy)phenyl]pyrimidine-2,4-diamine] | 10 to 100
Cc1cccc(Nc2nc(N)cc(-n3c(C)nc4ccccc43)n2)c1 [Cpd 127, 6-(2-methyl-1H-benzimidazol-1-yl)-N^2-(3-methylphenyl)pyrimidine-2,4-diamine] | 100 to 3000
Cc1ccc(Nc2nc(N)cc(-n3c(C)nc4ccccc43)n2)cc1 [Cpd 128, 6-(2-methyl-1H-benzimidazol-1-yl)-N^2-(4-methylphenyl)pyrimidine-2,4-diamine] | 1 to 10
Cc1nc2ccccc2n1-c1cc(N)nc(Nc2ccc(Br)cc2)n1 [Cpd 131, N^2-(4-bromophenyl)-6-(2-methyl-1H-benzimidazol-1-yl)pyrimidine-2,4-diamine] | 10 to 100

Compound | EC50 [nM]
Cc1nc2ccccc2n1-c1cc(N)nc(Nc2ccc([N+](=O)[O-])cc2)n1 [Cpd 132, 6-(2-methyl-1H-benzimidazol-1-yl)-N^2-(4-nitrophenyl)pyrimidine-2,4-diamine] | 100 to 3000
COc1ccc(Nc2nc(N)cc(-n3c(C)nc4ccc(F)cc43)n2)cc1 [Cpd 133, 6-(6-fluoro-2-methyl-1H-benzimidazol-1-yl)-N^2-(4-methoxyphenyl)pyrimidine-2,4-diamine] | 1 to 10
Cc1nc2ccccc2n1-c1cc(N)nc(Nc2ccc(N(C)C)cc2)n1 [Cpd 144, N^2-[4-(dimethylamino)phenyl]-6-(2-methyl-1H-benzimidazol-1-yl)pyrimidine-2,4-diamine] | 1 to 10
Cc1nc2ccccc2n1-c1cc(N)nc(Nc2ccc(C#N)cc2)n1 [Cpd 145, 4-{[4-amino-6-(2-methyl-1H-benzimidazol-1-yl)pyrimidin-2-yl]amino}benzonitrile] | 100 to 3000
Cc1nc2ccccc2n1-c1cc(N)nc(Nc2ccc(OC(F)(F)F)cc2)n1 [Cpd 146, 6-(2-methyl-1H-benzimidazol-1-yl)-N^2-[4-(trifluoromethoxy)phenyl]pyrimidine-2,4-diamine] | 100 to 3000
Cc1nc2ccccc2n1-c1cc(N)nc(Nc2ccc3c(c2)OC(F)(F)O3)n1 [Cpd 147, N^2-(2,2-difluoro-1,3-benzodioxol-5-yl)-6-(2-methyl-1H-benzimidazol-1-yl)pyrimidine-2,4-diamine] | 100 to 3000
COc1ccc(Nc2nc(N)cc(-n3c(C)nc4ccccc43)n2)cc1Cl [Cpd 149, N^2-(3-chloro-4-methoxyphenyl)-6-(2-methyl-1H-benzimidazol-1-yl)pyrimidine-2,4-diamine] | 1 to 10
CCc1nc2ccccc2n1-c1cc(N)nc(Nc2ccc(C)cc2)n1 [Cpd 153, 6-(2-ethyl-1H-benzimidazol-1-yl)-N^2-(4-methylphenyl)pyrimidine-2,4-diamine] | 1 to 10
CCc1nc2ccc(F)cc2n1-c1cc(N)nc(Nc2cccc(Cl)c2)n1 [Cpd 164, N^2-(3-chlorophenyl)-6-(2-ethyl-6-fluoro-1H-benzimidazol-1-yl)pyrimidine-2,4-diamine] | 100 to 3000
COc1ccc(Nc2nc(N)cc(-c3c(C)nc4ccc(F)cn34)n2)cc1 [Cpd 170, 6-(6-fluoro-2-methylimidazo[1,2-a]pyridin-3-yl)-N^2-(4-methoxyphenyl)pyrimidine-2,4-diamine] | 1 to 10
Cc1ccc(Nc2nc(N)cc(-c3c(C)nc4ccc(F)cn34)n2)cc1 [Cpd 171, 6-(6-fluoro-2-methylimidazo[1,2-a]pyridin-3-yl)-N^2-(4-methylphenyl)pyrimidine-2,4-diamine] | 1 to 10
Cc1cccc(Nc2nc(N)cc(-c3c(C)nc4ccc(F)cn34)n2)c1 [Cpd 173, 6-(6-fluoro-2-methylimidazo[1,2-a]pyridin-3-yl)-N^2-(3-methylphenyl)pyrimidine-2,4-diamine] | 100 to 3000
Cc1nc2ccc(F)cc2n1-c1cc(N)nc(Nc2ccc(Cl)c(F)c2)n1 [Cpd 174, N^2-(4-chloro-3-fluorophenyl)-6-(6-fluoro-2-methyl-1H-benzimidazol-1-yl)pyrimidine-2,4-diamine] | 10 to 100
COc1ccc(Nc2nc(N)c(F)c(-n3c(C)nc4ccccc43)n2)cc1 [Cpd 176, 5-fluoro-N^2-(4-methoxyphenyl)-6-(2-methyl-1H-benzimidazol-1-yl)pyrimidine-2,4-diamine] | 10 to 100
Cc1nc2ccccc2n1-c1cc(N)nc(Nc2ccc(Cl)cc2)n1 [Cpd 177, N^2-(4-chlorophenyl)-6-(2-methyl-1H-benzimidazol-1-yl)pyrimidine-2,4-diamine] | 10 to 100
Cc1ccc(Nc2nc(N)c(F)c(-n3c(C)nc4ccccc43)n2)cc1 [Cpd 178, 5-fluoro-6-(2-methyl-1H-benzimidazol-1-yl)-N^2-(4-methylphenyl)pyrimidine-2,4-diamine] | 1 to 10
Cc1nc2ccccc2n1-c1cc(N)nc(Nc2ccc(Cl)c(F)c2)n1 [Cpd 179, N^2-(4-chloro-3-fluorophenyl)-6-(2-methyl-1H-benzimidazol-1-yl)pyrimidine-2,4-diamine] | 10 to 100
COc1ccc(Nc2nc(N)cc(-n3c(C)nc4cc(F)c(F)cc43)n2)cc1 [Cpd 180, 6-(5,6-difluoro-2-methyl-1H-benzimidazol-1-yl)-N^2-(4-methoxyphenyl)pyrimidine-2,4-diamine] | 1 to 10
Cc1ccc(Nc2nc(N)cc(-n3c(C)nc4cc(F)c(F)cc43)n2)cc1 [Cpd 181, 6-(5,6-difluoro-2-methyl-1H-benzimidazol-1-yl)-N^2-(4-methylphenyl)pyrimidine-2,4-diamine] | 1 to 10
